Measured values reported in patent US20100285597A1, “DETECTION OF FRAGMENTS OF NECTIN-1 FOR THE DIAGNOSIS OF ALZHEIMER'S DISEASE” (UNIVERSITY OF ROCHESTER, priority 2007, published 2010).

System: γ-secretase
Assay: Western blot of nectin-1 C-terminal fragments in hippocampal neurons overexpressing flag tagged nectin-1, treated with γ-secretase inhibitor
Type: cell-based, rat
Settings: 0.5 and 1 μM inhibitor, 24 hrs, transduced hippocampal neurons at 21 DIV
Procedure: Hippocampal neurons were plated at a density of 1.3×10^5 cells. The neurons at 21 DIV were transduced with an adenovirus vector expressing a C-terminal flag tagged nectin-1 for 24 hrs at a MOI of 50. Neurons were treated without (FIG. 3, lanes 1 and 2) or with 0.5 μM (FIG. 3, lanes 3 and 4) and 1 μM γ-secretase inhibitor X (FIG. 3, lanes 5 and 6) for 24 hrs. These cells were harvested in reducing sample buffer and analyzed on a 10% SDS-PAGE gel.
Technical difficulties preclude detection of endogenous C-terminal fragments, particularly the 35 and 24 kDa forms due to low expression levels in neurons. To circumvent this, C-terminal Flag tagged nectin-1 was over expressed in neurons as described above.

CC(C)C[C@H](NC(=O)[C@H](Cc1ccccc1)C[C@@H](O)[C@H](Cc1ccccc1)NC(=O)OC(C)(C)C)C(=O)N[C@@H](Cc1ccccc1)C(N)=O [γ-secretase inhibitor X]
density of the 24 kDa nectin-1 band: reduced | density of the 37, 34 and 30 kDa nectin-1 bands: increased
